Residue numbers refer to the chain shown, from its start.
Experiments:
WT GAC = molecular target: T1, WT GAC (Mus musculus, UniProt D3Z7P3); assay: In vitro photo cross linking of SU-22 and purification of the conjugate; type: binding; conditions: 100 nM WT GAC, 10 μM SU-22, UV, A350/A280
T1 construct: (residues 72-603) was cloned into a pET23a vector; made in house
T1 sequence (D3Z7P3 72-603 isoform D3Z7P3-2): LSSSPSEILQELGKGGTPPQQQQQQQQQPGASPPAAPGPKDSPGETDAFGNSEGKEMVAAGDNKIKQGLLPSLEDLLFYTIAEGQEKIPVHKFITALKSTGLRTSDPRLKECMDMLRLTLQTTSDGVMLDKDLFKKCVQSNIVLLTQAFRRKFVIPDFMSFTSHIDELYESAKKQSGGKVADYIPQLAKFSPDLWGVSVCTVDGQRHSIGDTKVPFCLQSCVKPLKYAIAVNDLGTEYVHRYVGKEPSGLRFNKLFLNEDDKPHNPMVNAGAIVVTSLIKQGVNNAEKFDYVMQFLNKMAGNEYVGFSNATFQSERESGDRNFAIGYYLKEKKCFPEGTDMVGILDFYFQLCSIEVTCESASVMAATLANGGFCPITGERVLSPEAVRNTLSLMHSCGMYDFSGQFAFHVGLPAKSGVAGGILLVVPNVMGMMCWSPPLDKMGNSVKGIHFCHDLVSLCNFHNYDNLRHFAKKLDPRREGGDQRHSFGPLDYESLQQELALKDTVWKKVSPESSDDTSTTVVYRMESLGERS
Procedure: Conditions of in vitro cross linking of WT GAC, and the K316E/D391K/R459E GAC mutant were adapted for efficient cross linking and purification of the cross linked protein product. WT GAC and the K316E/D391K/R459E GAC mutant, both containing the N-terminal His-tag, were diluted to a concentration of 100 nM in 20 mM Tris-HCl (pH=8.6) 100 mM NaCl, upon which 10 μM of SU-22 was added. Following a preincubation time of 5 minutes, samples were exposed to UV light under a hand held 500 W UV lamp to initiate the photo cross linking. Immediately following, bovine serum albumin (BSA, Sigma) was added to a final concentration of 2 mg/mL to help stabilize the cross linked product and to bind excess un-reacted SU-22. To isolate the cross linked product, 2.5 mg cobalt agarose beads (Clontech) were added and the solution was gravity filtered. […] The purified cross linked protein was then concentrated using spin columns with a 30 kD molecular weight cutoff and quantified using UV-vis spectroscopy, where the protein was quantified using the A280 (ε280=38,850 M−1 cm−1) and the cross-linked SU-22 using the A350 (ε350=18,900 M−1 cm−1). […]

[1] = molecular target: T2, monomeric GAC (D391K, K316E, R459E) (Mus musculus, UniProt D3Z7P3, D391K/K316E/R459E); assay: 968 binding to GAC mutants, quenching of 488 fluorescence; conditions: 10 nM total monomer
T2 construct: (residues 72-603) was cloned into a pET23a vector; His-tag with thrombin cleavage site (N); made in house
T2 sequence (D3Z7P3 72-603 isoform D3Z7P3-2 K316E/D391K/R459E): T1 sequence (D3Z7P3 72-603 isoform D3Z7P3-2) with K245E, D320K, R388E
Procedure: Real-time fluorescence monitoring of 968 binding and GAC activity through production of NADH was performed on a Varian Cary Eclipse Fluorometer, whereas small molecule inhibition and binding titrations were performed in a 96-well format in a Tecan Saphire absorbance and fluorescence plate reader. Samples for monitoring real-time binding of 968 to 488-GAC were prepared by adding 10 μL of varying concentrations of 968 prepared in DMSO to an equilibrated 1 mL sample of 10 nM 488-GAC, while observing 488 fluorescence (490 nm excitation/520 nm emission). […] WT GAC (10 nM) was added and allowed to equilibrate 2 minutes before monitoring the fluorescence emission of 488-GAC (490 nm excitation, 520 nm emission) and NADH (340 nm excitation, 490 nm emission). […] The activity of GAC was measured in a coupled assay, by monitoring the NADH produced by glutamate dehydrogenase, which converts the product of the glutaminase-catalyzed reaction, glutamate, to α-ketoglutarate and ammonia by reducing NAD+ to NADH. Because solutions containing glutamine undergo non-enzymatic degradation to glutamate, samples were further analyzed by […] under identical experimental conditions. […]

ratio of cross linked SU-22 to protein (WT GAC)	affinity for 968 compared with WT 488-GAC and dimeric GAC (D391K) [1]	SMILES
0.52		CC1(C)CC(=O)C2=C(C1)c1c(ccc3cc4ccccc4cc13)NC2c1ccc(N=[N+]=[N-])cc1 (centres unmarked) [SU-22]
	highest affinity	CN(C)c1ccc(C2Nc3ccc4ccccc4c3C3=C2C(=O)CC(C)(C)C3)cc1Br (centres unmarked) [Compound 968]

Reference: patent US10526322B2, “Inhibitors of kidney-type glutaminase, GLS-1” (CORNELL UNIVERSITY, priority 2014, dated 2020)
